The values that follow are results of earlier work, collected in patent US7807616B2, “Geranonitrile substitute” (Henkel AG & Co. KGaA, priority 2004, dated 2010).

Where two headings read alike, the source gives them in different places.

For series [1] the following is noted: solution heated at 100° C. for two hours.
For series [2] the following is noted: new findings (BASF, 2003); status 2004.

As to `O=P([O-])([O-])OP(=O)([O-])OP(=O)([O-])[O-].[Na+].[Na+].[Na+].[Na+].[Na+]` [pentasodium triphosphate], the “amount of the anhydrous salt that dissolves in 100 g of water” value reads like this: (at 60°) “about 20 g”; (at 100°) “around 32 g”; (room temperature) “About 17 g”. Moreover, the “diphosphate produced by hydrolysis” value in series [1] is listed as about 15%. For the same compound, the “orthophosphate produced by hydrolysis” value in series [1] was “about 8%”.

As for `CC(C)=CCCC(C)=CC#N` [geranonitrile, 3,7-dimethyl-2,6-octadienenitrile], the “class under the EU classification criteria (CMR)” value in series [2] is on record as “category 3 mutagen (M:3)”.
